In the supplement of paper PMC10307832:

Tests used:
Assay in all cases: relative viability (nuclei count vs DMSO), 5 days (fraction); higher = more cells survive
NCI-H3122 = test system: NCI-H3122
Method in brief: (§1)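 Lung cancer cell lines were seeded in 1536-well plates and dosed by pin tool the next day, with either a single drug or a fixed anchor-drug dose combined with five library-drug doses (not always all listed) spaced in √10 steps. Five days later, one step fixed the cells and stained their nuclei (final 0.05% Triton X-100, 1% formaldehyde, 1 ug/ml Hoechst), and nuclei were counted on 4× images. Relative viability is the nuclei count in treated wells divided by the count in vehicle wells, and each value is the median of duplicate plates.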

NCI-H2126 = test system: NCI-H2126
Method in brief: as §1

HCC-15 = test system: HCC-15
Method in brief: as §1

ChaGo-K-1 = test system: ChaGo-K-1
Method in brief: as §1

HCC-78 = test system: HCC-78
Method in brief: as §1

CAL-12T = test system: CAL-12T
Method in brief: as §1

LXF-289 = test system: LXF-289
Method in brief: as §1

NCI-H2085 = test system: NCI-H2085
Method in brief: as §1

NCI-H1975 = test system: NCI-H1975
Method in brief: as §1

NCI-H441 = test system: NCI-H441
Method in brief: as §1

NCI-H1993 = test system: NCI-H1993
Method in brief: as §1

ABC-1 = test system: ABC-1
Method in brief: as §1

UMC-11 = test system: UMC-11
Method in brief: as §1

NCI-H2023 = test system: NCI-H2023
Method in brief: as §1

COR-L 105 = test system: COR-L 105
Method in brief: as §1

NCI-H1915 = test system: NCI-H1915
Method in brief: as §1

NCI-H358 = test system: NCI-H358
Method in brief: as §1

NCI-H322M = test system: NCI-H322M
Method in brief: as §1

NCI-H1755 = test system: NCI-H1755
Method in brief: as §1

HOP-62 = test system: HOP-62
Method in brief: as §1

EPLC-272H = test system: EPLC-272H
Method in brief: as §1

NCI-H1666 = test system: NCI-H1666
Method in brief: as §1

EMC-BAC-2 = test system: EMC-BAC-2
Method in brief: as §1

NC(=O)Nc1cc(-c2cccc(F)c2)sc1C(=O)N[C@H]1CCCNC1 [AZD7762] + O=C(c1cc(Cc2n[nH]c(=O)c3ccccc23)ccc1F)N1CCN(C(=O)C2CC2)CC1 [Olaparib] (partner 8 µM)
relative viability (NCI-H3122; first compound 0.01 µM): 0.681
relative viability (NCI-H3122; first compound 0.03162 µM): 0.527
relative viability (NCI-H3122; first compound 0.1 µM): 0.588
relative viability (NCI-H3122; first compound 0.3162 µM): 0.477
relative viability (NCI-H3122; first compound 1 µM): 0.404
relative viability (NCI-H2126; first compound 0.01 µM): 0.948
relative viability (NCI-H2126; first compound 0.03162 µM): 0.982
relative viability (NCI-H2126; first compound 0.1 µM): 0.966
relative viability (NCI-H2126; first compound 0.3162 µM): 0.941
relative viability (NCI-H2126; first compound 1 µM): 0.885
relative viability (HCC-15; first compound 0.01 µM): 0.824
relative viability (HCC-15; first compound 0.03162 µM): 0.948
relative viability (HCC-15; first compound 0.1 µM): 0.898
relative viability (HCC-15; first compound 0.3162 µM): 1.04
relative viability (HCC-15; first compound 1 µM): 0.983
relative viability (ChaGo-K-1; first compound 0.01 µM): 0.394
relative viability (ChaGo-K-1; first compound 0.03162 µM): 0.425
relative viability (ChaGo-K-1; first compound 0.1 µM): 0.423
relative viability (ChaGo-K-1; first compound 0.3162 µM): 0.415
relative viability (ChaGo-K-1; first compound 1 µM): 0.379
relative viability (HCC-78; first compound 0.01 µM): 0.86
relative viability (HCC-78; first compound 0.03162 µM): 1
relative viability (HCC-78; first compound 0.1 µM): 0.775
relative viability (HCC-78; first compound 0.3162 µM): 0.85
relative viability (HCC-78; first compound 1 µM): 0.515
relative viability (CAL-12T; first compound 0.01 µM): 0.908
relative viability (CAL-12T; first compound 0.03162 µM): 0.756
relative viability (CAL-12T; first compound 0.1 µM): 0.865
relative viability (CAL-12T; first compound 0.3162 µM): 0.489
relative viability (CAL-12T; first compound 1 µM): 0.2
relative viability (LXF-289; first compound 0.01 µM): 1.11
relative viability (LXF-289; first compound 0.03162 µM): 1.18
relative viability (LXF-289; first compound 0.1 µM): 1.21
relative viability (LXF-289; first compound 0.3162 µM): 1.16
relative viability (LXF-289; first compound 1 µM): 1.28
relative viability (NCI-H2085; first compound 0.01 µM): 0.872
relative viability (NCI-H2085; first compound 0.03162 µM): 0.86
relative viability (NCI-H2085; first compound 0.1 µM): 0.917
relative viability (NCI-H2085; first compound 0.3162 µM): 0.88
relative viability (NCI-H2085; first compound 1 µM): 0.903
relative viability (NCI-H1975; first compound 0.01 µM): 0.767
relative viability (NCI-H1975; first compound 0.03162 µM): 0.682
relative viability (NCI-H1975; first compound 0.1 µM): 0.638
relative viability (NCI-H1975; first compound 0.3162 µM): 0.538
relative viability (NCI-H1975; first compound 1 µM): 0.401
relative viability (NCI-H441; first compound 0.01 µM): 0.707
relative viability (NCI-H441; first compound 0.03162 µM): 0.795
relative viability (NCI-H441; first compound 0.1 µM): 0.675
relative viability (NCI-H441; first compound 0.3162 µM): 0.555
relative viability (NCI-H441; first compound 1 µM): 0.287
relative viability (NCI-H1993; first compound 0.01 µM): 1.18
relative viability (NCI-H1993; first compound 0.03162 µM): 1.03
relative viability (NCI-H1993; first compound 0.1 µM): 1.12
relative viability (NCI-H1993; first compound 0.3162 µM): 1.42
relative viability (NCI-H1993; first compound 1 µM): 0.922
relative viability (ABC-1; first compound 0.01 µM): 0.968
relative viability (ABC-1; first compound 0.03162 µM): 0.857
relative viability (ABC-1; first compound 0.1 µM): 0.893
relative viability (ABC-1; first compound 0.3162 µM): 0.938
relative viability (ABC-1; first compound 1 µM): 0.685
relative viability (UMC-11; first compound 0.01 µM): 0.819
relative viability (UMC-11; first compound 0.03162 µM): 0.342
relative viability (UMC-11; first compound 0.1 µM): 0.277
relative viability (UMC-11; first compound 0.3162 µM): 0.256
relative viability (UMC-11; first compound 1 µM): 0.255
relative viability (NCI-H2023; first compound 0.01 µM): 0.463
relative viability (NCI-H2023; first compound 0.03162 µM): 0.323
relative viability (NCI-H2023; first compound 0.1 µM): 0.171
relative viability (NCI-H2023; first compound 0.3162 µM): 0.111
relative viability (NCI-H2023; first compound 1 µM): 0.0963
relative viability (COR-L 105; first compound 0.01 µM): 0.699
relative viability (COR-L 105; first compound 0.03162 µM): 0.643
relative viability (COR-L 105; first compound 0.1 µM): 0.529
relative viability (COR-L 105; first compound 0.3162 µM): 0.542
relative viability (COR-L 105; first compound 1 µM): 0.516
relative viability (NCI-H1915; first compound 0.01 µM): 0.275
relative viability (NCI-H1915; first compound 0.03162 µM): 0.308
relative viability (NCI-H1915; first compound 0.1 µM): 0.272
relative viability (NCI-H1915; first compound 0.3162 µM): 0.209
relative viability (NCI-H1915; first compound 1 µM): 0.189
relative viability (NCI-H358; first compound 0.01 µM): 0.872
relative viability (NCI-H358; first compound 0.03162 µM): 0.64
relative viability (NCI-H358; first compound 0.1 µM): 0.715
relative viability (NCI-H358; first compound 0.3162 µM): 0.408
relative viability (NCI-H358; first compound 1 µM): 0.212
relative viability (NCI-H322M; first compound 0.01 µM): 0.795
relative viability (NCI-H322M; first compound 0.03162 µM): 0.933
relative viability (NCI-H322M; first compound 0.1 µM): 0.85
relative viability (NCI-H322M; first compound 0.3162 µM): 0.627
relative viability (NCI-H322M; first compound 1 µM): 0.354
relative viability (NCI-H1755; first compound 0.01 µM): 1.01
relative viability (NCI-H1755; first compound 0.03162 µM): 0.92
relative viability (NCI-H1755; first compound 0.1 µM): 0.957
relative viability (NCI-H1755; first compound 0.3162 µM): 0.855
relative viability (NCI-H1755; first compound 1 µM): 0.619
relative viability (HOP-62; first compound 0.01 µM): 0.541
relative viability (HOP-62; first compound 0.03162 µM): 0.239
relative viability (HOP-62; first compound 0.1 µM): 0.313
relative viability (HOP-62; first compound 0.3162 µM): 0.297
relative viability (HOP-62; first compound 1 µM): 0.136
relative viability (EPLC-272H; first compound 0.01 µM): 1.08
relative viability (EPLC-272H; first compound 0.03162 µM): 0.707
relative viability (EPLC-272H; first compound 0.1 µM): 0.586
relative viability (EPLC-272H; first compound 0.3162 µM): 0.219
relative viability (EPLC-272H; first compound 1 µM): 0.0768
relative viability (NCI-H1666; first compound 0.01 µM): 0.85
relative viability (NCI-H1666; first compound 0.03162 µM): 0.973
relative viability (NCI-H1666; first compound 0.1 µM): 1.06
relative viability (NCI-H1666; first compound 0.3162 µM): 0.968
relative viability (NCI-H1666; first compound 1 µM): 0.814
relative viability (EMC-BAC-2; first compound 0.01 µM): 0.612
relative viability (EMC-BAC-2; first compound 0.03162 µM): 0.628
relative viability (EMC-BAC-2; first compound 0.1 µM): 0.626
relative viability (EMC-BAC-2; first compound 0.3162 µM): 0.64
relative viability (EMC-BAC-2; first compound 1 µM): 0.547
